What was measured:
recombinant NL4-3 virus = assay: HIV cell culture assay (Renilla luciferase reporter virus in MT-2 cells); format: cell-based; details: Human immunodeficiency virus 1, NL43, MT2
Experimental: HIV cell culture assay—MT-2 cells, 293T cells and the proviral DNA clone of NL4-3 virus were obtained from the NIH AIDS Research and Reference Reagent Program. MT-2 cells were propagated in RPMI 1640 media supplemented with 10% heat inactivated fetal bovine serum (FBS), […]. The 293T cells were propagated in DMEM media supplemented with 10% heat inactivated FBS, […]. A recombinant NL4-3 proviral clone, in which a section of the nef gene was replaced with the Renilla luciferase gene, was used to make the reference virus used in these studies. The recombinant virus was prepared through transfection of the recombinant NL4-3 proviral clone into 293T cells using Transit-293 Transfection Reagent from Mirus Bio LLC (Madison, Wis.). Supernatent was harvested after 2-3 days and the amount of virus present was titered in MT-2 cells using luciferase enzyme activity as a marker by measuring luciferase enzyme activity. Luciferase was quantitated using the EnduRen Live Cell Substrate from Promega (Madison, Wis.). Antiviral activities of compounds toward the recombinant virus were quantified by measuring luciferase activity in MT-2 cells infected for 4-5 days with the recombinant virus in the presence of serial dilutions of the compound. […]

[1] = Compound cytotoxicity, XTT-based colorimetric assay; format: cell-based; details: human; uninfected MT2 cells, day 4, XTT
Experimental: Compound cytotoxicity and the corresponding CC50 values were determined using the same protocol as described in the antiviral assay except that uninfected cells were used. Cytotoxicity was assessed on day 4 in uninfected MT2 cells by using an XTT (2,3-bis[2-Methoxy-4-nitro-5-sulfophenyl]-2H-tetrazolium-5-carboxyanilide inner salt)-based colorimetric assay (Sigma-Aldrich, St Louis, Mo.).

Compound	EC50 (recombinant NL4-3 virus) [nM]	CC50 at 4 day [1] [nM]
CC(C)(C#Cc1ccc2c(=O)n(-c3ccc(Cl)c4c(NS(=O)(=O)C5CC5)nn(CC(F)F)c34)c([C@H](Cc3cc(F)cc(F)c3)NC(=O)Cn3nc(C(F)F)c4c3C(F)(F)C3CC43)nc2c1)S(C)(=O)=O (stereo in doubt) [Example 2, N—((S)-1-(3-(4-chloro-3-(cyclopropanesulfonamido)-1-(2,2-difluoroethyl)-1H-indazol-7-yl)-7-(3-methyl-3-(methylsulfonyl)but-1-yn-1-yl)-4-oxo-3,4-dihydroquinazolin-2-yl)-2-(3,5-difluorophenyl)ethyl)-2-((3bS,4aR)-3-(difluoromethyl)-5,5-difluoro-3b,4,4a,5-tetrahydro-1H-cyclopropa[3,4]cyclopenta[1,2-c]pyrazol-1-yl)acetamide]	0.047	> 500
Cn1nc(NS(C)(=O)=O)c2c(Cl)ccc(-n3c([C@H](Cc4cc(F)cc(F)c4)NC(=O)Cn4nc(C(F)F)c5c4C(F)(F)C4CC54)nc4cc(C#CC(C)(C)S(C)(=O)=O)ccc4c3=O)c21 (stereo in doubt) [Example 1, N—((S)-1-(3-(4-chloro-1-methyl-3-(methylsulfonamido)-1H-indazol-7-yl)-7-(3-methyl-3-(methylsulfonyl)but-1-yn-1-yl)-4-oxo-3,4-dihydroquinazolin-2-yl)-2-(3,5-difluorophenyl)ethyl)-2-((3bS,4aR)-3-(difluoromethyl)-5,5-difluoro-3b,4,4a,5-tetrahydro-1H-cyclopropa[3,4]cyclopenta[1,2-c]pyrazol-1-yl)acetamide]	0.035	> 500
